Source: US7786136B2, “Indazole-carboxamide compounds” (Theravance, Inc., priority 2004, dated 2010)

Experiment: Pharmacokinetic study in the rat
Type: in vivo
Procedure: Pharmacokinetic Study in the Rat
Aqueous solution formulations of test compounds were prepared in 0.1% lactic acid at a pH of between about 5 and about 6. Male Sprague-Dawley rats (CD strain, Charles River Laboratories, Wilmington, Mass.) were dosed with test compounds via intravenous administration (IV) at a dose of 2.5 mg/kg or by oral gavage (PO) at a dose of 5 mg/kg. The dosing volume was 1 mL/kg for IV and 2 mL/kg for PO administration. Serial blood samples were collected from animals pre-dose, and at 2 (IV only), 5, 15, and 30 min, and at 1, 2, 4, 8, and 24 hours post-dose. Concentrations of test compounds in blood plasma were determined by liquid chromatography-mass spectrometry analysis (LC-MS/MS) (MDS SCIEX, API 4000, Applied Biosystems, Foster City, Calif.) with a lower limit of quantitation of 1 ng/mL.
Standard pharmacokinetic parameters were assessed by non-compartmental analysis (Model 201 for IV and Model 200 for PO) using WinNonlin (Version 4.0.1, Pharsight, Mountain View, Calif.). The maximum in the curve of test compound concentration in blood plasma vs. time is denoted Cmax. The area under the concentration vs. time curve from the time of dosing to the last measurable concentration (AUC(0-t)) was calculated by the linear trapezoidal rule. Oral bioavailability (F(%)), i.e. the dose-normalized ratio of AUC(0-t) for PO administration to AUC(0-t) for IV administration, was calculated as: F(%)=AUCPO/AUCIV×DoseIV/DosePO×100%

[1] = male Sprague-Dawley rats, blood plasma, IV 2.5 mg/kg or PO 5 mg/kg

CC(C)n1nc(C(=O)N[C@H]2C[C@H]3CC[C@@H](C2)N3CC(O)CN2CCN(C(=O)C3CCCO3)CC2)c2ccccc21 (stereo partly drawn) [Example 2, 1-isopropyl-1H-indazole-3-carboxylic acid((1S,3R,5R)-8-{2-hydroxy-3-[4-(tetrahydrofuran-2-carbonyl)piperazin-1-yl]propyl}-8-aza-bicyclo[3.2.1]oct-3-yl)amide]
AUC(0-t) [1]: 0.427 µg·h/mL | Cmax [1]: 0.055 µg/mL | oral bioavailability (F(%)) (rat, dose-normalized AUC(0-t) PO 5 mg/kg vs IV 2.5 mg/kg): about 30%
